In patent US11865091B2, “Supporting immunomodulatory agent” (Flexopharm Brain GMBH & Co. KG, priority 2014, dated 2024):
“Also recorded” adds a separate entry of the source.

Experiments:
adiponectin = experiment: Clinical study of sodium propionate, adiponectin levels; type: in vivo, human; conditions: 4 weeks after administration had been terminated, FIG. 6 column C
Description: FIG. 6 is a graph showing the effect of administration of sodium propionate in a clinical study in ten patients on adiponectin levels.

CD4+CD25+ Foxp3 cells = experiment: Regulatory T cell levels in mouse EAE model; type: in vivo; conditions: for proliferation and amount of regulatory T cells: in the intestines and blood
Description: FIG. 4: is a graph showing the effect of propionic acid diet initiated at the time of disease induction (DI) compared to a control group on levels of CD4+CD25+ Foxp3 cells in mouse EAE model.
FIG. 5 is a graph showing the effect of lauric acid diet (250 μM and 500 μM) initiated at the time of disease induction (DI) compared to a control group on levels of CD4+CD25+ Foxp3 cells in mouse EAE model.
(§1) Mice kept under standardized conditions were fed on a normal diet enriched with long-chain fatty acids (30.9% lauric acid) and additionally with 200 μl of propionate daily administered orally. The propionate was given either at the time of disease induction (DI) or at the onset of the disease (OD).
(§2) For the induction of EAE the mice were anesthetized and administered two subcutaneous injections of a 50 μl emulsion applied to the left and right tail basis and comprising a total of 200 μg MOG35-55 (myelin oligodendrocyte glycoprotein) and 200 μg Freund's adjuvant (CFA) with 4 mg/ml of M. tuberculosis. Pertussistoxin ([…]) was given intraperitoneally on day 0 and 2 after the induction. The clinical assessment took place on a daily basis using a 5-point scale (SEM). The assessment was as follows: • 0=normal • 1=Tail paralysis impairing raising • 2=Gait ataxia • 3=Paraparesis of hind legs • 4=Tetraparesis • 5=Death Mice showing SEM 4 or 5 were excluded.

TH1 and TH17 cells = experiment: Th1/Th17 cells in small intestine and central nervous system, EAE model; type: in vivo; conditions: mouse EAE, lauric acid enriched diet
Description: (§3) Moreover, the aliphatic chain length of the carboxylic acids also affects the […] autoimmunity as well as the regulatory response of Treg in an in vivo mouse model.

intestinal microbiota = experiment: Composition of the intestinal microbiome; type: in vivo, mice; conditions: for effect on normal intestinal microbiota / number of bacteria degrading propionate and butyrate: intestinal microbiome
Description: The inventive acids, in particular propionic acid and butyric acid have an influence on the bowel physiology and the microbiome present there. In this way, they have an impact on the composition of the microbiome.

[1] = test system: experimental autoimmune encephalomyelitis (EAE); experiment: Mouse EAE model, daily clinical assessment on 5-point scale (SEM); type: in vivo
Description: as §1, §2

[2] = test system: experimental autoimmune encephalomyelitis (EAE); experiment: Mouse EAE model: relative axonal density, demyelination of white matter, CD3+ cells; type: in vivo; conditions: versus control group, FIG. 3
Description: FIG. 3: is a graph showing the effect of propionic acid diet initiated at the time of disease induction (DI) or at the time of onset of symptoms (OD) compared to a diet control group on relative axonal density, demyelination in the white matter, and CD3+ cells in the mouse EAE model.
as §1, §2
The influence of propionic acid on the relative axonal density, the demyelination of the white matter, and the number of CD3+-cells is shown in FIG. 3.

Foxp3 = experiment: Gene expression profiling of signature cytokines in EAE mice; type: in vivo, mouse; conditions: EAE mice fed propionic acid
Description: as §3

IL-10 = experiment: as above; type: in vivo, mouse; conditions: EAE mice fed propionic acid
Description: as §3

TGFβ = experiment: as above; type: in vivo, mouse; conditions: EAE mice fed propionic acid
Description: as §3

SMILES: CCC(=O)[O-].[Na+] [sodium propionate]
- duration of the adiponectin effect (adiponectin): lasts longer than the administration duration

SMILES: CCCCCCCCCCCC(=O)O [lauric acid, reference compound]
- concentration dependence of the percentage reduction of CD4+CD25+ Foxp3 cells (CD4+CD25+ Foxp3 cells; lauric acid 250 μM and 500 μM, FIG. 5): dependent on concentration
- CD4+CD25+ Foxp3 cells (CD4+CD25+ Foxp3 cells; lauric acid 250 μM and 500 μM, versus control value, FIG. 5): reduction
- TH1 and TH17 cells in the small intestine (TH1 and TH17 cells): significant reduction
- Th1/Th17 in the central nervous system (TH1 and TH17 cells): accumulation
- number of Provotellaceae and some families of Phylum Bacteroidetes (intestinal microbiota; mice): reduce significantly

SMILES: CCC(=O)O [propionic acid]
- disease course versus control group ([1]; propionic acid given on the day of onset of disease (OD), FIG. 2): significantly less favorable disease course
- disease course versus control group ([1]; propionic acid given prophylactically (at disease induction, DI)): significant improvement
- demyelination of the white matter [2]: significant improvement
- number of CD3+ cells [2]: significant improvement
- relative axonal density [2]: significant improvement
- proliferation and amount of regulatory T cells (CD4+CD25+ Foxp3 cells): positive effect
- number of regulatory T cells (CD4+CD25+ Foxp3+ Treg) (CD4+CD25+ Foxp3 cells; mouse EAE, propionic acid at disease induction (DI), versus control group, FIG. 4): significant increase
- Foxp3 gene expression (Foxp3): increased values; also recorded: significant increase
- IL-10 gene expression (IL-10): increased values; also recorded: significant increase
- TGFβ gene expression (TGFβ): increased values; also recorded: significant increase
- effect on normal intestinal microbiota (intestinal microbiota): only slightly affected
- number of bacteria degrading propionate and butyrate (intestinal microbiota): increases significantly

SMILES: CCCC(=O)O [butyric acid]
- proliferation and amount of regulatory T cells (CD4+CD25+ Foxp3 cells): positive effect
- effect on normal intestinal microbiota (intestinal microbiota): only slightly affected
- number of bacteria degrading propionate and butyrate (intestinal microbiota): increases significantly
